Test results published in US20240122179A1, “AUXINIC HERBICIDES AND METHODS OF USE THEREOF” (CORTEVA AGRISCIENCE LLC, priority 2021, published 2024).
Like-named read-outs stand apart in the source and are kept apart here.

Experiments:
Experiment in all cases: Postemergence herbicide evaluation, percent reduction in plant size vs untreated control, 21 days after treatment
[1] = test system: Amaranthus rudis (AMATA); format: in vivo, Amaranthus rudis (tall water hemp); settings: Amaranthus tuberculatus, post-emergence, 504 h, AMATA, postemergence, read-out: Control/Injury; for pest or weed control at 140 g/ha: rate 140 g ae/ha; for pest or weed control at 280 g/ha: rate 280 g ae/ha
Method: (§1) Plants were grown in a soil media composed of 90% by volume Promix BX (Premier Tech Horticulture, Quakertown, PA) and 10% Profile Greens Grade (Profile Products LLC, Buffalo Grove, IL). Promix BX contains approximately 83% Sphagnum Peat Moss, 13% Perlite, 5% vermiculite, and proprietary amounts of limestone, starter fertilizer, and wetting agent. Profile Greens Grade is a sand-sized granule formed from calcining illite and montmorillonite clay. Several seeds of each species were planted in 10 cm square pots and top watered twice daily. Plant material was propagated in a warm greenhouse with temperature ranging from 25 to 28° C. and 50 to 60% relative humidity at the Corteva Global Headquarters (Indianapolis, Indiana, USA). Natural light was supplemented with 1000-watt metal halide overhead lamps with an average illumination of 500 μE m^−2 s^−1 photosynthetic active radiation for 16 consecutive hours each day. Plants were top-watered prior to herbicide application and sub-watered after herbicide application.
(§2) Appropriate amounts of test materials were weighed out into glass vials in their technical form to deliver either 140 or 280 g acid equivalent (ae)/ha. The samples were dissolved in 3 ml of Solvent 1. Solvent 1 is 97% acetone and 3% dimethyl sulfoxide and serves as a general-purpose solvent (GPS) for dissolving technical materials. […] The samples were then diluted to their final concentration using 17 ml of solvent 2 for a total of 20 ml of spray solution. Solvent 2 contains 41.58% GPS, 45.53% water, 11.88% isopropyl alcohol, 0.99% crop oil concentrate and 0.02% Trition X-155 surfactant. All percentages are listed on a volume basis. Dicamba diglycolamine was applied as a formulated herbicide, Clarity™ and diluted with solvent 2 to compare all materials in the same spray solution.
(§3) Herbicide applications were made to 3 to 4 replicates of each plant species at the 2 to 8 leaf stage, depending on the species. Treatments were applied with a research track-sprayer (Generation III Research Sprayer manufactured by DeVries Manufacturing in Hollandale, MN, USA) calibrated to deliver a spray volume of 187 L/ha. The track-sprayer was fitted with an 8003E nozzle from Spray Systems Company (North Avenue and Schmale Road, P.O. Box 7900, Wheaton, IL 60187), and used a spray pressure of 276 kPa pressure and a speed of 3.1 km/h. The nozzle height was 46 cm above the plant canopy. The experimental design used for the trials was a randomized complete block with 3 or 4 replications per treatment. After application, plants were placed on carts according to the randomization and returned to the greenhouse. Plants were sub-watered after treatment with Indianapolis city water or fertilized three times a week with a commercial fertilizer solution (Jack's Professional 15-5-15 4 Ca 2 Mg fertilizer (manufactured by JR PETERS INC., 6656 Grant Way, Allentown, PA 18106; www.jrpeters.com). Percent visual control assessments were made on a scale of 0 to 100% (where 0 was no control and 100 was complete plant death) at 7, 14, and 21 days after treatment.
(§4) In conformity with the methods outlined in Example 49, the effect of representative experimental compounds on the growth of Amaranthus rudis (AMATA), common name tall water hemp, was determined at 2 different levels (respectively, 140 and 280 g acid equivalent (ae)/ha) of the experimental actives tested. Plants were treated with one of the compounds, a control plant was not treated. Twenty-one days after treatment, the plants were measured. The data is present as a percent reduction in plant size relative to the untreated control.

[2] = test system: Amaranthus palmeri (AMAPA); format: in vivo, Amaranthus palmeri (Palmer amaranth); settings: post-emergence, 504 h, postemergence, read-out: Control/Injury; for pest or weed control at 140 g/ha: rate 140 g ae/ha; for pest or weed control at 280 g/ha: rate 280 g ae/ha
Method: as §1, §2, §3
as §4, with “palmeri (AMAPA),” for “rudis (AMATA),”, “name, Palmer amaranth,” for “name tall water hemp,”

[3] = test system: Ambrosia artemisiifolia (AMBEL); format: in vivo, Ambrosia artemisiifolia (common ragweed); settings: post-emergence, 504 h, AMBEL, postemergence, read-out: Control/Injury; for pest or weed control at 140 g/ha: rate 140 g ae/ha; for pest or weed control at 280 g/ha: rate 280 g ae/ha
Method: as §1, §2, §3
as §4, with “Ambrosia artemisiifolia (AMBEL), (common ragweed),” for “Amaranthus rudis (AMATA), common name tall water hemp,”

[4] = test system: Conyza canadensis (L.) (ERICA); format: in vivo, Conyza canadensis (L.) (Horseweed); settings: Erigeron canadensis, post-emergence, 504 h, ERICA, postemergence, read-out: Control/Injury; for pest or weed control at 140 g/ha: rate 140 g ae/ha; for pest or weed control at 280 g/ha: rate 280 g ae/ha
Method: as §1, §2, §3
as §4, with “Conyza canadensis (L.), (ERICA),” for “Amaranthus rudis (AMATA),”, “name, Horseweed,” for “name tall water hemp,”

[5] = test system: Kochia scoparia (KCHSC); format: in vivo; settings: Bassia scoparia, post-emergence, 504 h, KCHSC, postemergence, read-out: Control/Injury; for pest or weed control at 140 g/ha: rate 140 g ae/ha; for pest or weed control at 280 g/ha: rate 280 g ae/ha
Method: as §1, §2, §3
as §4, with “Kochia scoparia (KCHSC)” for “Amaranthus rudis (AMATA), common name tall water hemp,”

[6] = R-AMAPA, percent reduction vs untreated control, 21 days after treatment
[7] = percent reduction vs untreated control, 21 days after treatment
[8] = percent reduction vs untreated, 21 days after treatment

Structure (SMILES)	pest or weed control at 140 g/ha [1] [%]	pest or weed control at 280 g/ha [1] [%]	pest or weed control at 140 g/ha [2, 6] [%]	pest or weed control at 280 g/ha [2, 6] [%]	pest or weed control at 140 g/ha [3] [%]	pest or weed control at 280 g/ha [3] [%]	pest or weed control at 140 g/ha [4, 7] [%]	pest or weed control at 280 g/ha [4, 7] [%]	pest or weed control at 140 g/ha [5] [%]	pest or weed control at 280 g/ha [5] [%]	pest or weed control at 140 g/ha ([2]; AMAPA) [%]	pest or weed control at 280 g/ha ([2]; AMAPA) [%]	pest or weed control at 140 g/ha [4] [%]	pest or weed control at 280 g/ha [4] [%]	pest or weed control at 140 g/ha [5, 8] [%]	pest or weed control at 280 g/ha [5, 8] [%]
COc1c(Cl)ccc(Cl)c1C(=O)ONC(C)=O [Compound A-68]	23	40	42	52	55	58	8	23	58	82						
COc1c(Cl)ccc(Cl)c1C(=O)OCc1cc(COC(=O)c2c(Cl)ccc(Cl)c2OC)cc(COC(=O)c2c(Cl)ccc(Cl)c2OC)c1 [Compound A-123]	0	8			5	5					2	3	0	0	0	0
COc1c(Cl)ccc(Cl)c1C(=O)NNc1ccccc1 [Compound A-131]	40	30			48	58					23	38	28	30	30	38
COc1c(Cl)ccc(Cl)c1C(=O)Oc1ncn(-c2ccccc2)n1 [Compound A-121]	75	94			88	98					75	85	97	99	83	96
COc1c(Cl)ccc(Cl)c1C(=O)n1ncc2ccccc21 [Compound A-113]	50	63			70	90					40	70	50	99	85	93
COc1c(Cl)ccc(Cl)c1C(=O)NOc1ccccc1 [Compound A-124]	3	10			20	28					4	3	0	3	0	0
COc1c(Cl)ccc(Cl)c1C(=O)ON(C)C(=O)c1ccccc1 [Compound A-71]	83	80	70	82	83	93	85	92	85	87						
COC(=O)C(C(=O)OC)C(=O)c1c(Cl)ccc(Cl)c1OC [Compound A-135]	0	5			23	35					6	10	10	25	3	3
C=CCONC(=O)c1c(Cl)ccc(Cl)c1OC [Compound A-101]	18	33			25	15					18	13	0	8	0	0
COc1c(Cl)ccc(Cl)c1C(=O)n1oc2ccccc2c1=O [Compound A-130]	20	28			40	48					18	20	13	28	45	45
